Measured values: patent US10829478B2, “5-[3-[piperazin-1-yl]-3-oxo-propyl]-imidazolidine-2,4-dione derivatives as ADAMTS 4 and 5 inhibitors for treating e.g. osteoarthritis” (Galapagos NV, priority 2016, dated 2020)
Like-named read-outs stand apart in the source and are kept apart here.

How the values were obtained:
[1] = target: human ADAMTS4 (Homo sapiens (Human), UniProt O75173); experiment: hADAMTS-4 TBIS-1 cleavage assay, Protocol 2; type: biochemical
[2] = target: human ADAMTS-5 (Homo sapiens (Human), UniProt Q9UNA0); experiment: hADAMTS-5 TBIS-1 cleavage assay, Protocol 3; type: biochemical; details: 90 min at 37° C., read-out: hADAMTS-5 potency IC50
Sequence of human ADAMTS-5 (Q9UNA0 262-930): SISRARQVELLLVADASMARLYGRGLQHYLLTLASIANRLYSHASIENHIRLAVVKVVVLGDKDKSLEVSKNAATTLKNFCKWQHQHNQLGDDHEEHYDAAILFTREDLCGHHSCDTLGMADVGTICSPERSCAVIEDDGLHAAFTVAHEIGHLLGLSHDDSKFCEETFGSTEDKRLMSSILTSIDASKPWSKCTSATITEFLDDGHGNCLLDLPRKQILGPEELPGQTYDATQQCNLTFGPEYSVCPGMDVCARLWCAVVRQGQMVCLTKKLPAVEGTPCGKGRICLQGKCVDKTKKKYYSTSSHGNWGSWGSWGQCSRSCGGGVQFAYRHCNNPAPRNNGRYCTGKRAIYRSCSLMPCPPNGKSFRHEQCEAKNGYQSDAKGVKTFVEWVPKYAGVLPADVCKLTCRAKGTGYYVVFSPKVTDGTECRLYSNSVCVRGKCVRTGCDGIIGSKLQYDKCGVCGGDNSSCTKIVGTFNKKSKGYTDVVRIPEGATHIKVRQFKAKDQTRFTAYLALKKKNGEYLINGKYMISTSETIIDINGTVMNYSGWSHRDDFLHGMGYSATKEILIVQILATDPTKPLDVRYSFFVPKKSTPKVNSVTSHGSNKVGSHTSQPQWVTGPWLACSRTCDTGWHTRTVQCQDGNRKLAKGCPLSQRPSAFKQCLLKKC
Experimental: The reaction is initiated by adding to the assay plate TBIS-1 (10 μL, 4.5 μM, Anaspec) in the same buffer.
Finally, the fluorescence is read on the Envision (Perkin Elmer) after an incubation of 90 min at 37° C. (Excitation 485 nm, emission 530).

[3] = target: human ADAMTS6 (Homo sapiens (Human), UniProt Q9UKP5); experiment: hADAMTS-6 fluorescent based protease assay (520 MMP FRET substrate XII); type: biochemical; details: 37° C. for 2 h; read-out: hADAMTS-6 potency IC50
Sequence of human ADAMTS6 (Q9UKP5 other isoform, or with tags, fused parts or gaps): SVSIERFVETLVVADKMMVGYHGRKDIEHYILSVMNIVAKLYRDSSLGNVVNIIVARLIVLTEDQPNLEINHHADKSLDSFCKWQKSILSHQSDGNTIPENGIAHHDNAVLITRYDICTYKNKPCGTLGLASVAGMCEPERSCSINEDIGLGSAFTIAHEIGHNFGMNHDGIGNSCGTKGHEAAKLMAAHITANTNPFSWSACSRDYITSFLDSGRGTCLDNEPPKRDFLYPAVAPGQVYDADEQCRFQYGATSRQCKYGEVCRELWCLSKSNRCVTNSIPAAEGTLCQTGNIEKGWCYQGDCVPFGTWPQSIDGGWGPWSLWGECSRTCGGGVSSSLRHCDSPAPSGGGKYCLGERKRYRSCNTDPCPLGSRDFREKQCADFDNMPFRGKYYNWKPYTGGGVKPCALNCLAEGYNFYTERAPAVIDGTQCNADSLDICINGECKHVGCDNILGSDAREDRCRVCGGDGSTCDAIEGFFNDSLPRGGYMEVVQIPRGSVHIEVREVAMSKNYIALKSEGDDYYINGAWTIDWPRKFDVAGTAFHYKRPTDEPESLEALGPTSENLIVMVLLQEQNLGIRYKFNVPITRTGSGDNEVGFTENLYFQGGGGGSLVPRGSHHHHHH
In short: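 ADAMTS6 (0.73 nM final) in 25 mM Tris pH 8.0, 0.05% CHAPS, 2.5 mM CaCl2 with compound dilution series (top 20 μM, 1/5 steps). Reaction started with 520 MMP FRET Substrate XII, incubated 2 h at 37 °C. Substrate cleavage read by fluorescence ex485/em530; IC50 determined.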

[4] = target: human MMP13 (Homo sapiens (Human), UniProt P45452); experiment: hMMP13 assay, Protocol 2 (390 MMP FRET Substrate I, Enzo enzyme); type: biochemical; details: Protocol 2, human MMP13 (Enzo Life Sciences), read-out: hMMP-13 potency IC50
Experimental: Human MMP13 is preactivated by incubated the enzyme in the same buffer complemented with 1 mM freshly prepared p-Aminophenylmercuric acetate (AMPA) for 1 h at 37° C.

[5] = target: human MMP14 (Homo sapiens (Human), UniProt P50281); experiment: hMMP14 assay (390 MMP FRET Substrate I); type: biochemical; details: human MMP14 (Biomol), read-out: hMMP-14 potency IC50
Experimental: The basis for the assay is the cleavage of the substrate 390 MMP FRET Substrate I (Anaspec Cat #AS-27076) by human MMP14 (Biomol, Cat #SE-259).
The reaction is initiated by adding to the assay plate 390 MMP FRET Substrate I (10 μL, 2.5 μM) in the same buffer.
Finally, the fluorescence is read on the Envision (Perkin Elmer) after an incubation of 60 min at room temperature (Excitation 485 nm, Emission 530).

[6] = target: human TACE (Homo sapiens (Human), UniProt P78536); experiment: biochemical
Sequence of human TACE (P78536 215-671): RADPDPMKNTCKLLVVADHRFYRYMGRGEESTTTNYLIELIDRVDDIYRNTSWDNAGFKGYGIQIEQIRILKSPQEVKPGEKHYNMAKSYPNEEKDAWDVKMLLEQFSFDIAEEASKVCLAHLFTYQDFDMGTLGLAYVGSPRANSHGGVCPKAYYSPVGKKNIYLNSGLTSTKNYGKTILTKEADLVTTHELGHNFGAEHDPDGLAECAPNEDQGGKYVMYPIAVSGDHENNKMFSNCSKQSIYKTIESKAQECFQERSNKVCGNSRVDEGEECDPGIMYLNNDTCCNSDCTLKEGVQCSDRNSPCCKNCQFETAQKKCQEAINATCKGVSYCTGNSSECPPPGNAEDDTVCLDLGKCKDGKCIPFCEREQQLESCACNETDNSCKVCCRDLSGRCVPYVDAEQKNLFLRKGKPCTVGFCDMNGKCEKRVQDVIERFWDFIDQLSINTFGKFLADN
Experimental: Finally, the fluorescence is read on the Envision (Perkin Elmer) after an incubation of 75 min at room temperature (Excitation 485 nm, Emission 530).

[7] = Protocol 2, 180 min at 37° C., read-out: ADAMTS4 potency IC50

Sequence of human ADAMTS4 (O75173 213-837): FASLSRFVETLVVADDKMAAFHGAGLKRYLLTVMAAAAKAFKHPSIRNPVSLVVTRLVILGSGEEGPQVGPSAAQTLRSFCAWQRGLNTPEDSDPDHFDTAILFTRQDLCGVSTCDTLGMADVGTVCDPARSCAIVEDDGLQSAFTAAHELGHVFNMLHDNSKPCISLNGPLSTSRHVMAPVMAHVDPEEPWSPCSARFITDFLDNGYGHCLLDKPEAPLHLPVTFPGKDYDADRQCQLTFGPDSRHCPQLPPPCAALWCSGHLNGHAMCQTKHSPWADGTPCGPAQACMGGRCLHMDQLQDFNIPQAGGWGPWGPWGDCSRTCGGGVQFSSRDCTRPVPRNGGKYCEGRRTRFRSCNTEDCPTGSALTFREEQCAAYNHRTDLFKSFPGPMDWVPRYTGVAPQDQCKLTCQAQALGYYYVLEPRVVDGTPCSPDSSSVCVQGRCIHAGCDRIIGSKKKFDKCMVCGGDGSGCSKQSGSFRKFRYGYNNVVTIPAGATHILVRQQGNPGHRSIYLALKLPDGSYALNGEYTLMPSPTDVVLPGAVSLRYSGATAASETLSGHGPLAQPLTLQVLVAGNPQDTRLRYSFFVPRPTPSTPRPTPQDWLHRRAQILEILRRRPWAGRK

SMILES	IC50 [2] [nM]	IC50 [3] [nM]	IC50 [4] [nM]	IC50 [5] [nM]	IC50 [6] [nM]	IC50 [1, 7] [nM]	IC50 [1] [nM]
CC[C@]1(C[C@H](C)C(=O)N2CCN(c3cc(F)c(F)c(OC)c3)CC2)NC(=O)NC1=O [Cpd 57, (5R)-5-[(2S)-3-[4-(3,4-difluoro-5-methoxy-phenyl)piperazin-1-yl]-2-methyl-3-oxo-propyl]-5-ethyl-imidazolidine-2,4-dione]	25 to 50	0.001 to 25	> 100	> 100	> 100		50 to 100
COc1cc(N2CCN(C(=O)CC[C@@]3(C4CC4)NC(=O)NC3=O)C[C@@H]2C)cc(Cl)c1F [Cpd 62, (5S)-5-[3-[(3S)-4-(3-chloro-4-fluoro-5-methoxy-phenyl)-3-methyl-piperazin-1-yl]-3-oxo-propyl]-5-cyclopropyl-imidazolidine-2,4-dione]	0.001 to 25	0.001 to 25	> 100	> 100	> 100		50 to 100
COc1cc(N2CCN(C(=O)CC[C@@]3(C4CC4)NC(=O)NC3=O)C[C@@H]2C)cc(F)c1Cl [Cpd 65, (5S)-5-[3-[(3S)-4-(4-chloro-3-fluoro-5-methoxy-phenyl)-3-methyl-piperazin-1-yl]-3-oxo-propyl]-5-cyclopropyl-imidazolidine-2,4-dione]	0.001 to 25	0.001 to 25	> 100	> 100	> 100		50 to 100
COc1cc(N2CCN(C(=O)CC[C@@]3(C)NC(=O)NC3=O)C[C@@H]2C)cc(Cl)c1Cl [Cpd 90, (5R)-5-[3-[(3 S)-4-(3,4-dichloro-5-methoxy-phenyl)-3-methyl-piperazin-1-yl]-3-oxo-propyl]-5-methyl-imidazolidine-2,4-dione]	0.001 to 25	0.001 to 25	> 100	> 100	> 100		25 to 50
COc1cc(N2CCN(C(=O)CC[C@@]3(C)NC(=O)NC3=O)C[C@@H]2C)ccc1F [Cpd 93, (5R)-5-[3-[(3 S)-4-(4-fluoro-3-methoxy-phenyl)-3-methyl-piperazin-1-yl]-3-oxo-propyl]-5-methyl-imidazolidine-2,4-dione]	> 100	0.001 to 25	> 100	> 100	> 100	> 100	
COc1cc(Cl)cc(N2CCN(C(=O)CC[C@@]3(C)NC(=O)NC3=O)C[C@@H]2C)c1 [Cpd 96, (5R)-5-[3-[(3 S)-4-(3-chloro-5-methoxy-phenyl)-3-methyl-piperazin-1-yl]-3-oxo-propyl]-5-methyl-imidazolidine-2,4-dione]	> 100	0.001 to 25	> 100	> 100	> 100	> 100	
COc1cc(N2CCN(C(=O)CC[C@@]3(C)NC(=O)NC3=O)C[C@@H]2C)cc(N(C)C)c1Cl [Cpd 99, (5R)-5-[3-[(3S)-4-[4-chloro-3-(dimethylamino)-5-methoxy-phenyl]-3-methyl-piperazin-1-yl]-3-oxo-propyl]-5-methyl-imidazolidine-2,4-dione]	> 100	0.001 to 25	> 100	> 100	> 100	> 100	
COc1cc(N2CCN(C(=O)CC[C@@]3(C)NC(=O)NC3=O)C[C@@H]2C)cc(C)c1Cl [Cpd 105, (5R)-5-[3-[(3S)-4-(4-chloro-3-methoxy-5-methyl-phenyl)-3-methyl-piperazin-1-yl]-3-oxo-propyl]-5-methyl-imidazolidine-2,4-dione]	> 100	0.001 to 25	> 100	> 100	> 100		50 to 100
CCc1cc(N2CCN(C(=O)CC[C@@]3(C)NC(=O)NC3=O)C[C@@H]2C)cc(OC)c1Cl [Cpd 106, (5R)-5-[3-[(3 S)-4-(4-chloro-3-ethyl-5-methoxy-phenyl)-3-methyl-piperazin-1-yl]-3-oxo-propyl]-5-methyl-imidazolidine-2,4-dione]	> 100	0.001 to 25	> 100	> 100	> 100	> 100	
CC[C@H]1CN(C(=O)CC[C@@]2(C)NC(=O)NC2=O)CCN1c1ccc(Cl)c(OC)c1 [Cpd 107, (5R)-5-[3-[(3 S)-4-(4-chloro-3-methoxy-phenyl)-3-ethyl-piperazin-1-yl]-3-oxo-propyl]-5-methyl-imidazolidine-2,4-dione]	> 100	> 100	> 100	> 100	> 100	> 100	
COc1cc(N2CCN(C(=O)CC[C@@]3(C)NC(=O)NC3=O)C[C@@H]2C(C)C)ccc1Cl [Cpd 109, (5R)-5-[3-[(3S)-4-(4-chloro-3-methoxy-phenyl)-3-isopropyl-piperazin-1-yl]-3-oxo-propyl]-5-methyl-imidazolidine-2,4-dione]	> 100	> 100	> 100	> 100	> 100	> 100	
COc1cc(N2CCN(C(=O)CC[C@@]3(C)NC(=O)NC3=O)CC2)cc(C)c1Cl [Cpd 112, (5R)-5-[3-[4-(4-chloro-3-methoxy-5-methyl-phenyl)piperazin-1-yl]-3-oxo-propyl]-5-methyl-imidazolidine-2,4-dione]	> 100	0.001 to 25	> 100	> 100	> 100		50 to 100
CCc1cc(N2CCN(C(=O)CC[C@@]3(C)NC(=O)NC3=O)CC2)cc(OC)c1Cl [Cpd 115, (5R)-5-[3-[4-(4-chloro-3-ethyl-5-methoxy-phenyl)piperazin-1-yl]-3-oxo-propyl]-5-methyl-imidazolidine-2,4-dione]	> 100	0.001 to 25	> 100	> 100	> 100	> 100	

More lines, main results first:

IC50 [2] [nM]	IC50 [3] [nM]	IC50 [4] [nM]	IC50 [5] [nM]	IC50 [6] [nM]	IC50 [1, 7] [nM]	SMILES	IC50 [1] [nM]
25 to 50	0.001 to 25	> 100	> 100	> 100	> 100	COc1cc(N2CCN(C(=O)CCC3(c4cccc(C)n4)NC(=O)NC3=O)C[C@@H]2C)cc(F)c1F (stereo partly drawn) [Cpd 61, 5-[3-[(3S)-4-(3,4-difluoro-5-methoxy-phenyl)-3-methyl-piperazin-1-yl]-3-oxo-propyl]-5-(6-methyl-2-pyridyl)imidazolidine-2,4-dione]	
25 to 50	0.001 to 25	> 100	> 100	> 100	> 100	COc1cc(N2CCN(C(=O)CC[C@@]3(C)NC(=O)NC3=O)C[C@@H]2C)cc(Cl)c1F [Cpd 63, (5R)-5-[3-[(3 S)-4-(3-chloro-4-fluoro-5-methoxy-phenyl)-3-methyl-piperazin-1-yl]-3-oxo-propyl]-5-methyl-imidazolidine-2,4-dione]	
> 100	25 to 50	> 100	> 100	> 100	> 100	CCc1cc(N2CCN(C(=O)CC[C@@]3(C)NC(=O)NC3=O)CC2)ccc1Cl [Cpd 71, (5R)-5-[3-[4-(4-chloro-3-ethyl-phenyl)piperazin-1-yl]-3-oxo-propyl]-5-methyl-imidazolidine-2,4-dione]	
> 100	0.001 to 25	> 100	> 100	> 100	> 100	COc1cc(N2CCN(C(=O)CC[C@@]3(C)NC(=O)NC3=O)CC2)cc(OC)c1F [Cpd 74, (5R)-5-[3-[4-(4-fluoro-3,5-dimethoxy-phenyl)piperazin-1-yl]-3-oxo-propyl]-5-methyl-imidazolidine-2,4-dione]	
50 to 100	0.001 to 25	> 100	> 100	> 100	> 100	CCc1cc(N2CCN(C(=O)CC[C@@]3(C)NC(=O)NC3=O)C[C@@H]2C)ccc1Cl [Cpd 75, (5R)-5-[3-[(3 S)-4-(4-chloro-3-ethyl-phenyl)-3-methyl-piperazin-1-yl]-3-oxo-propyl]-5-methyl-imidazolidine-2,4-dione]	
> 100	0.001 to 25	> 100	> 100	> 100	> 100	CCOc1cc(N2CCN(C(=O)CC[C@@]3(C)NC(=O)NC3=O)CC2)cc(OC)c1Cl [Cpd 79, (5R)-5-[3-[4-(4-chloro-3-ethoxy-5-methoxy-phenyl)piperazin-1-yl]-3-oxo-propyl]-5-methyl-imidazolidine-2,4-dione]	
> 100	0.001 to 25	> 100	> 100	> 100	> 100	CCOc1cc(N2CCN(C(=O)CC[C@@]3(C)NC(=O)NC3=O)C[C@@H]2C)cc(OC)c1Cl [Cpd 80, (5R)-5-[3-[(3 S)-4-(4-chloro-3-ethoxy-5-methoxy-phenyl)-3-methyl-piperazin-1-yl]-3-oxo-propyl]-5-methyl-imidazolidine-2,4-dione]	
> 100	0.001 to 25	> 100	> 100	> 100	> 100	COc1cc(N2CCN(C(=O)CC[C@@]3(C)NC(=O)NC3=O)C[C@@H]2C)cc(OC)c1F [Cpd 89, (5R)-5-[3-[(3 S)-4-(4-fluoro-3,5-dimethoxy-phenyl)-3-methyl-piperazin-1-yl]-3-oxo-propyl]-5-methyl-imidazolidine-2,4-dione]	
